Laboratory results from ChEMBL document CHEMBL1134120, “Some 3-thioxo/alkylthio-1,2,4-triazoles with a substituted thiourea moiety as possible antimycobacterials” (Bioorg Med Chem Lett, 2001).
In brackets after ≈: the same amount, converted by molar mass.

Experiments:
[1] = Selectivity index (IC50/MIC) was determined; type: functional
[2] = test system: Mycobacterium tuberculosis; test: Compound was evaluated for antituberculosis activity against Mycobacterium tuberculosis in level 2 assay (performed using BACTEC in which MIC of RMP was found as 0.125 […]); type: functional
[3] = test system: Mycobacterium tuberculosis; test: Percent reduction of mycobacterial growth using Mycobacterium tuberculosis H37Rv at a concentration of 12.5 ug/mL; type: functional
[4] = test system: Mycolicibacterium fortuitum; test: In vitro anti-mycobacterial activity expressed as minimum inhibitory concentration against Mycobacterium fortuitum ATCC 6841; type: functional
[5] = test system: Mycobacterium tuberculosis; test: In vitro antituberculosis activity against Mycobacterium tuberculosis H37Rv using the BACTEC 12B medium using a micro dilution assay( MABA); type: functional
[6] = test system: Mycobacterium tuberculosis; test: Concentration required for inhibition of growth of Mycobacterium tuberculosis in level 2 assay; type: functional, organism-based
[7] = species on record: Mus musculus; test: Tested in vitro for killing of Mycobacterium tuberculosis Erdman (ATCC 35801) in monolayers of mouse bone marrow macrophages and 99% reduction was reported using level 3 assay; type: functional; parameters: unit not given here
[8] = test system: Mycobacterium tuberculosis; test: Compound was evaluated for antituberculosis activity against Mycobacterium tuberculosis in level 2 assay; type: functional
[9] = Tested in vitro for killing of Mycobacterium tuberculosis Erdman (ATCC 35801) in monolayers of mouse bone marrow macrophages and 90% reduction was reported using level 3 assay; type: functional; parameters: unit not given here
[10] = Ratio between EC90 and MIC was reported; type: functional

## C=CCNC(=S)Nc1ccc(-c2nnc(SCc3ccc(Cl)cc3Cl)n2C)cc1
[1]
  Ratio: > 1.6
[2]
  MIC: 6.25 µg/mL
[3]
  inhibition at 12.5 µg/mL: 94%
[4]
  MIC: > 128 µg/mL
[5]
  MIC: < 12.5 µg/mL
[6]
  IC50: > 10 µg/mL

## C=CCNC(=S)Nc1ccc(-c2n[nH]c(=S)n2-c2ccccc2)cc1
[3]
  inhibition at 12.5 µg/mL: 12%
[4]
  MIC: 64 µg/mL (≈ 174 µM)
[5]
  MIC: > 12.5 µg/mL

## S=C(Nc1ccc(Cl)cc1)Nc1ccc(-c2n[nH]c(=S)n2-c2ccccc2)cc1
[3]
  inhibition at 12.5 µg/mL: 11%
[4]
  MIC: 64 µg/mL (≈ 146 µM)
[5]
  MIC: > 12.5 µg/mL

## C=CCNC(=S)Nc1ccc(-c2n[nH]c(=S)n2CC)cc1
[3]
  inhibition at 12.5 µg/mL: 89%
[4]
  MIC: 64 µg/mL (≈ 200 µM)
[5]
  MIC: > 12.5 µg/mL

## C=CCNC(=S)Nc1ccc(-c2n[nH]c(=S)n2CCc2ccccc2)cc1
[3]
  inhibition at 12.5 µg/mL: 6%
[4]
  MIC: 64 µg/mL (≈ 162 µM)
[5]
  MIC: > 12.5 µg/mL

## NC[C@H]1O[C@H](O[C@H]2[C@H](O)[C@@H](O[C@H]3O[C@H](CO)[C@@H](O)[C@H](N)[C@H]3O)[C@H](N)C[C@@H]2N)[C@H](N)C[C@@H]1O [TOBRAMYCIN]
[4]
  MIC: 32 µg/mL (≈ 68.4 µM)

## S=C(Nc1ccccc1)Nc1ccc(-c2n[nH]c(=S)n2-c2ccccc2)cc1
[3]
  inhibition at 12.5 µg/mL: 13%
[4]
  MIC: > 128 µg/mL
[5]
  MIC: > 12.5 µg/mL

## CCNC(=S)Nc1ccc(-c2n[nH]c(=S)n2-c2ccccc2)cc1
[3]
  inhibition at 12.5 µg/mL: 17%
[4]
  MIC: 64 µg/mL (≈ 180 µM)
[5]
  MIC: > 12.5 µg/mL

## C=CCNC(=S)Nc1ccc(-c2n[nH]c(=S)n2C)cc1
[7]
  EC99: >100
[3]
  inhibition at 12.5 µg/mL: 94%
[4]
  MIC: 64 µg/mL (≈ 210 µM)
[5]
  MIC: 12.5 µg/mL (≈ 40.9 µM)
[8]
  MIC: > 12.5 µg/mL
[9]
  EC90: 0.698
[10]
  Ratio: < 0.0558

## C=CCn1c(-c2ccc(NC(=S)NC)cc2)n[nH]c1=S
[3]
  inhibition at 12.5 µg/mL: 0%
[4]
  MIC: > 128 µg/mL
[5]
  MIC: > 12.5 µg/mL

## CNC(=S)Nc1ccc(-c2n[nH]c(=S)n2-c2ccccc2)cc1
[3]
  inhibition at 12.5 µg/mL: 27%
[4]
  MIC: 64 µg/mL (≈ 187 µM)
[5]
  MIC: > 12.5 µg/mL

## C=CCNC(=S)Nc1ccc(-c2nnc(SCc3ccc(Cl)cc3Cl)n2-c2ccccc2)cc1
[3]
  inhibition at 12.5 µg/mL: 63%
[4]
  MIC: > 128 µg/mL
[5]
  MIC: > 12.5 µg/mL

## CNC(=S)Nc1ccc(-c2n[nH]c(=S)n2C)cc1
[7]
  EC99: >100
[3]
  inhibition at 12.5 µg/mL: 93%
[4]
  MIC: 64 µg/mL (≈ 229 µM)
[5]
  MIC: < 12.5 µg/mL
[8]
  MIC: > 12.5 µg/mL
[9]
  EC90: 0.371
[10]
  EC90/MIC: < 0.0297

## CCn1c(S)nnc1-c1ccc(N/C(S)=N/C2CCCCC2)cc1
[3]
  inhibition at 12.5 µg/mL: 10%
[4]
  MIC: 64 µg/mL (≈ 177 µM)
[5]
  MIC: > 12.5 µg/mL

## Cn1c(-c2ccc(NC(=S)Nc3ccccc3)cc2)n[nH]c1=S
[3]
  inhibition at 12.5 µg/mL: 29%
[4]
  MIC: 64 µg/mL (≈ 187 µM)
[5]
  MIC: > 12.5 µg/mL

## S/C(=N\C1CCCCC1)Nc1ccc(-c2nnc(S)n2C2CCCCC2)cc1
[3]
  inhibition at 12.5 µg/mL: 12%
[4]
  MIC: > 128 µg/mL
[5]
  MIC: > 12.5 µg/mL

## C=CCNC(=S)Nc1ccc(-c2n[nH]c(=S)n2CC=C)cc1
[3]
  inhibition at 12.5 µg/mL: 71%
[4]
  MIC: 32 µg/mL (≈ 96.5 µM)
[5]
  MIC: > 12.5 µg/mL

## CCNC(=S)Nc1ccc(-c2n[nH]c(=S)n2C)cc1
[7]
  EC99: 48.65
[3]
  inhibition at 12.5 µg/mL: 90%
[4]
  MIC: 64 µg/mL (≈ 218 µM)
[5]
  MIC: < 12.5 µg/mL
[8]
  MIC: > 12.5 µg/mL
[9]
  EC90: 0.303
[10]
  Ratio: < 0.0242

## C=CC/N=C(\S)Nc1ccc(-c2nnc(S)n2C2CCCCC2)cc1
[3]
  inhibition at 12.5 µg/mL: 35%
[4]
  MIC: 32 µg/mL (≈ 85.7 µM)
[5]
  MIC: > 12.5 µg/mL

## Cn1c(S)nnc1-c1ccc(N/C(S)=N/C2CCCCC2)cc1
[3]
  inhibition at 12.5 µg/mL: 10%
[4]
  MIC: 32 µg/mL (≈ 92.1 µM)
[5]
  MIC: > 12.5 µg/mL

## CNC(=S)Nc1ccc(-c2nnc(SCc3ccccc3)n2C)cc1
[3]
  inhibition at 12.5 µg/mL: 85%
[4]
  MIC: > 128 µg/mL
[5]
  MIC: > 12.5 µg/mL

## CO[C@H]1/C=C/O[C@@]2(C)Oc3c(C)c(O)c4c(O)c(c(/C=N/N5CCN(C)CC5)c(O)c4c3C2=O)NC(=O)/C(C)=C\C=C\[C@H](C)[C@H](O)[C@@H](C)[C@@H](O)[C@@H](C)[C@H](OC(C)=O)[C@@H]1C [RIFAMPIN]
[7]
  EC99: 0.451
[4]
  MIC: 0.25 µg/mL (≈ 0.304 µM)
[9]
  EC90: 0.007

## S/C(=N\C1CCCCC1)Nc1ccc(-c2nnc(S)n2-c2ccccc2)cc1
[3]
  inhibition at 12.5 µg/mL: 13%
[4]
  MIC: 64 µg/mL (≈ 156 µM)
[5]
  MIC: > 12.5 µg/mL

## C=CCn1c(-c2ccc(NC(=S)Nc3ccccc3)cc2)n[nH]c1=S
[3]
  inhibition at 12.5 µg/mL: 0%
[4]
  MIC: 32 µg/mL (≈ 87.1 µM)
[5]
  MIC: > 12.5 µg/mL
